Columns and labels:
Type in all cases: in vivo
[1] = test system: Chilo suppressalis (Striped Rice Stemborer); experiment: Example B3: Chilo suppressalis (striped rice stemborer), artificial diet, L2 larvae; details: 144 h, application rate of 200 ppm, 6 days after infestation, L2 larvae, read-out: control in at least one of the three categories (mortality, anti-feedant effect, or growth inhibition)
Summary of the method: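 Artificial diet in wells was treated with aqueous test solutions diluted from 10'000 ppm DMSO stocks, dried, then infested with 6-8 L2 larvae per well. Mortality, anti-feeding effect and growth inhibition were scored against untreated samples 6 days after infestation; control means any category exceeds the untreated sample.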

[2] = test system: Plutella xylostella (Diamond Back Moth); experiment: Example B4: Plutella xylostella (diamond back moth), artificial diet, eggs, 24-well; details: 192 h, application rate of 200 ppm, 8 days after infestation, eggs, read-out: control in at least one of the two categories (mortality or growth inhibition)
Experimental: 24-well microtiter plates with artificial diet were treated with aqueous test solutions prepared from 10′000 ppm DMSO stock solutions by pipetting. After drying, Plutella eggs were pipetted through a plastic stencil onto a gel blotting paper and the plate was closed with it. The samples were assessed for mortality and growth inhibition in comparison to untreated samples 8 days after infestation.

[3] = test system: Spodoptera littoralis (Egyptian Cotton Leaf Worm); experiment: Example B7: Spodoptera littoralis (Egyptian cotton leaf worm), cotton leaf discs sprayed, L1 larvae; details: foliar, 72 h, application rate of 200 ppm, 3 days after infestation, L1 larvae, read-out: control in at least one of the three categories (mortality, anti-feedant effect, or growth inhibition)
Summary of the method: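 Spray application onto agar-supported cotton leaf discs used aqueous solutions derived from 10′000 ppm DMSO stocks. Once dry, discs were infested with five L1 larvae and evaluated after 3 days for mortality, anti-feeding and growth inhibition relative to untreated controls.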

[4] = test system: Diabrotica Balteata (Corn Root Worm); experiment: Example B1: Diabrotica balteata (corn root worm), maize sprouts sprayed, L2 larvae; details: 96 h, application rate of 200 ppm, 4 days after infestation, L2 larvae, read-out: control in at least one of the two categories (mortality or growth inhibition)
Summary of the method: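 Larvae at L2 stage, 6 to 10 per well, feed on dried, spray-treated maize sprouts set on agar. Evaluation after 4 days compares mortality and growth inhibition with untreated samples.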

CC(c1nc(Br)nn1-c1ncccn1)N(C)c1ncnc2c(C(F)(F)F)cc(Cl)cc12 (centres unmarked) [P.205, N-[1-(5-bromo-2-pyrimidin-2-yl-1,2,4-triazol-3-yl)ethyl]-6-chloro-N-methyl-8-(trifluoromethyl)quinazolin-4-amine]
≥ 80%: percent control (mortality, anti-feedant effect or growth inhibition) at 200 ppm [1] | percent control (mortality or growth inhibition) at 200 ppm [2] | percent control (mortality, anti-feedant effect or growth inhibition) at 200 ppm [3] | percent control (mortality or growth inhibition) at 200 ppm [4]

C[C@@H](c1ncnn1-c1ccc(C#N)cn1)N(C)c1ccnc2c(C(F)(F)F)cc(Br)cc12 [P.206, 6-[5-[(1S)-1-[[6-bromo-8-(trifluoromethyl)-4-quinolyl]-methyl-amino]ethyl]-1,2,4-triazol-1-yl]pyridine-3-carbonitrile]
≥ 80%: percent control (mortality, anti-feedant effect or growth inhibition) at 200 ppm [1] | percent control (mortality or growth inhibition) at 200 ppm [2] | percent control (mortality, anti-feedant effect or growth inhibition) at 200 ppm [3] | percent control (mortality or growth inhibition) at 200 ppm [4]

CC(c1nc(Br)nn1-c1ncccn1)N(C)c1ncnc2c(Cl)cc(C(F)(F)F)cc12 (centres unmarked) [P.207, N-[1-(5-bromo-2-pyrimidin-2-yl-1,2,4-triazol-3-yl)ethyl]-8-chloro-N-methyl-6-(trifluoromethyl)quinazolin-4-amine]
≥ 80%: percent control (mortality, anti-feedant effect or growth inhibition) at 200 ppm [1] | percent control (mortality or growth inhibition) at 200 ppm [2] | percent control (mortality, anti-feedant effect or growth inhibition) at 200 ppm [3] | percent control (mortality or growth inhibition) at 200 ppm [4]

C[C@H](Nc1ccnc2c(Br)cc(C(F)(F)F)cc12)c1ncnn1-c1ncccn1 [P.209, 8-bromo-N-[(1S)-1-(2-pyrimidin-2-yl-1,2,4-triazol-3-yl)ethyl]-6-(trifluoromethyl)quinolin-4-amine]
≥ 80%: percent control (mortality, anti-feedant effect or growth inhibition) at 200 ppm [1] | percent control (mortality or growth inhibition) at 200 ppm [2] | percent control (mortality, anti-feedant effect or growth inhibition) at 200 ppm [3] | percent control (mortality or growth inhibition) at 200 ppm [4]

CC(c1ncnn1-c1ccc(C#N)cn1)N(C)c1nccc2c(C(F)(F)F)cc(C(F)(F)F)cc12 (centres unmarked) [P.211, 6-[5-[1-[[5,7-bis(trifluoromethyl)-1-isoquinolyl]-methyl-amino]ethyl]-1,2,4-triazol-1-yl]pyridine-3 carbonitrile]
≥ 80%: percent control (mortality, anti-feedant effect or growth inhibition) at 200 ppm [1] | percent control (mortality or growth inhibition) at 200 ppm [2] | percent control (mortality, anti-feedant effect or growth inhibition) at 200 ppm [3] | percent control (mortality or growth inhibition) at 200 ppm [4]

C[C@@H](c1ncnn1-c1ccc(C#N)cn1)N(C)c1ccnc2c(C(F)(F)F)cc(C(F)(F)F)cc12 [P.214, 6-[5-[(1S)-1-[[6,8-bis(trifluoromethyl)-4-quinolyl]-methyl-amino]ethyl]-1,2,4-triazol-1-yl]pyridine-3-carbonitrile]
≥ 80%: percent control (mortality, anti-feedant effect or growth inhibition) at 200 ppm [1] | percent control (mortality or growth inhibition) at 200 ppm [2] | percent control (mortality, anti-feedant effect or growth inhibition) at 200 ppm [3] | percent control (mortality or growth inhibition) at 200 ppm [4]

C[C@H](Nc1ncnc2c(C(F)(F)F)cc(I)cc12)c1ncnn1-c1ccc(C#N)cn1 [P.218, 6-[5-[(1S)-1-[[6-iodo-8-(trifluoromethyl)quinazolin-4-yl]amino]ethyl]-1,2,4-triazol-1-yl]pyridine-3-carbonitirle]
≥ 80%: percent control (mortality, anti-feedant effect or growth inhibition) at 200 ppm [1] | percent control (mortality or growth inhibition) at 200 ppm [2] | percent control (mortality, anti-feedant effect or growth inhibition) at 200 ppm [3] | percent control (mortality or growth inhibition) at 200 ppm [4]

CC(c1ncnn1-c1ccc(C#N)cn1)N(C)c1c(C#N)cnc2c(C(F)(F)F)cc(C(F)(F)F)cc12 (centres unmarked) [P.224, 4-[1-[2-(5-cyano-2-pyridyl)-1,2,4-tirazol-3-yl]ethyl-methyl-amino]-6,8-bis(trifluoromethy)quino-line-3-carbonitrile]
≥ 80%: percent control (mortality, anti-feedant effect or growth inhibition) at 200 ppm [1] | percent control (mortality or growth inhibition) at 200 ppm [2] | percent control (mortality, anti-feedant effect or growth inhibition) at 200 ppm [3] | percent control (mortality or growth inhibition) at 200 ppm [4]

Source: US20230002359A1, “PESTICIDALLY ACTIVE FUSED BICYCLIC HETEROAROMATIC COMPOUNDS” (priority 2019, published 2023)
